Experimental data published in the CheMixHub drug solubility set.

Assay: xn = mol fraction of the nth substance listed, in the solute-free solvent

CC(=O)Oc1cccc2c1C(=O)c1c(OC(C)=O)cc(C(=O)O)cc1C2=O + CC#N + CCO
solubility (g/100 g solution)
Conditions | 273.15 K | 278.15 K | 283.15 K | 288.15 K | 293.15 K | 298.15 K | 303.15 K | 308.15 K | 313.15 K
x2 = 0.1109 | 0.00681 | 0.00922 | 0.0124 | 0.0163 | 0.0211 | 0.0275 | 0.0344 | 0.0422 | 0.0532
x2 = 0.2191 | 0.0086 | 0.0114 | 0.0156 | 0.0201 | 0.0251 | 0.0316 | 0.0396 | 0.0497 | 0.0623
x2 = 0.3248 | 0.0151 | 0.02 | 0.0259 | 0.032 | 0.0393 | 0.0474 | 0.0557 | 0.0657 | 0.0756
x2 = 0.428 | 0.0245 | 0.0312 | 0.039 | 0.0468 | 0.0553 | 0.0655 | 0.0782 | 0.0921 | 0.108
x2 = 0.5288 | 0.0313 | 0.0399 | 0.0509 | 0.0631 | 0.0754 | 0.0896 | 0.105 | 0.121 | 0.139
x2 = 0.6273 | 0.0353 | 0.0455 | 0.0574 | 0.0703 | 0.0834 | 0.0991 | 0.114 | 0.13 | 0.148
x2 = 0.7236 | 0.0286 | 0.0372 | 0.048 | 0.0598 | 0.0714 | 0.0842 | 0.098 | 0.113 | 0.129
x2 = 0.8178 | 0.0226 | 0.029 | 0.0374 | 0.0457 | 0.0538 | 0.0633 | 0.0742 | 0.0857 | 0.101
x2 = 0.9099 | 0.0216 | 0.0259 | 0.0322 | 0.0392 | 0.0467 | 0.0549 | 0.0647 | 0.0747 | 0.0869

CC(=O)Oc1cccc2c1C(=O)c1c(OC(C)=O)cc(C(=O)O)cc1C2=O + CC(=O)N(C)C + O
solubility (g/100 g solution)
Conditions | x2 = 0.02247 | x2 = 0.04917 | x2 = 0.08143 | x2 = 0.1212 | x2 = 0.1714 | x2 = 0.2368 | x2 = 0.3255 | x2 = 0.4528 | x2 = 0.6506
278.15 K | 0.00282 | 0.0125 | 0.0358 | 0.0823 | 0.255 | 0.368 | 0.38 | 0.452 | 0.496
283.15 K | 0.00402 | 0.0162 | 0.0459 | 0.107 | 0.313 | 0.441 | 0.521 | 0.622 | 0.691
288.15 K | 0.00537 | 0.0204 | 0.0587 | 0.137 | 0.374 | 0.525 | 0.683 | 0.821 | 0.927
293.15 K | 0.00727 | 0.0256 | 0.0748 | 0.173 | 0.444 | 0.633 | 0.885 | 1.07 | 1.18
298.15 K | 0.00929 | 0.0324 | 0.0937 | 0.219 | 0.532 | 0.779 | 1.12 | 1.35 | 1.47
303.15 K | 0.0112 | 0.0405 | 0.119 | 0.274 | 0.633 | 0.95 | 1.38 | 1.69 | 1.81
308.15 K | 0.0139 | 0.0502 | 0.149 | 0.343 | 0.746 | 1.16 | 1.7 | 2.1 | 2.29
313.15 K | 0.0168 | 0.0643 | 0.184 | 0.429 | 0.862 | 1.44 | 2.04 | 2.54 | 2.83

Cc1ccc2cc(Br)ccc2n1 + CC(C)O + O
solubility (g/100 g solution)
Conditions | 278.15 K | 283.15 K | 288.15 K | 293.15 K | 298.15 K | 303.15 K | 308.15 K | 313.15 K | 318.15 K | 323.15 K
x2 = 0.03225 | 0.0479 | 0.0553 | 0.0644 | 0.0741 | 0.0853 | 0.0974 | 0.113 | 0.129 | 0.148 | 0.169
x2 = 0.06974 | 0.141 | 0.161 | 0.185 | 0.211 | 0.241 | 0.273 | 0.312 | 0.356 | 0.403 | 0.457
x2 = 0.1139 | 0.263 | 0.301 | 0.346 | 0.393 | 0.446 | 0.505 | 0.576 | 0.655 | 0.74 | 0.837
x2 = 0.1666 | 0.372 | 0.427 | 0.492 | 0.56 | 0.637 | 0.723 | 0.826 | 0.94 | 1.06 | 1.2
x2 = 0.2307 | 0.427 | 0.503 | 0.586 | 0.671 | 0.769 | 0.881 | 0.997 | 1.15 | 1.31 | 1.5
x2 = 0.3103 | 0.482 | 0.567 | 0.673 | 0.787 | 0.904 | 1.04 | 1.19 | 1.37 | 1.57 | 1.79
x2 = 0.4117 | 0.539 | 0.642 | 0.767 | 0.896 | 1.04 | 1.2 | 1.39 | 1.59 | 1.81 | 2.06
x2 = 0.5454 | 0.596 | 0.7 | 0.856 | 1.03 | 1.2 | 1.4 | 1.63 | 1.89 | 2.17 | 2.48
x2 = 0.7297 | 0.657 | 0.815 | 0.972 | 1.16 | 1.33 | 1.56 | 1.81 | 2.1 | 2.4 | 2.78
